Read-outs that look alike come from different tables or passages of the source.
Key:
Assay type in all cases: cell-based
[1] = system: Linezolid-Resistant Staphylococcus aureus Isolates; assay: MIC assay (NCCLS broth dilution), LRSA isolates; settings: Staphylococcus aureus; for MIC: read-out: Minimal Inhibitory Concentration
How it was run: (§1)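 MIC is read as the value from NCCLS-standard broth dilution in Mueller Hinton II medium. Each agent spanned 11 two-fold dilutions, with novobiocin paired to tetracycline or minocycline at a 2.5:1 ratio reflecting serum levels.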

[2] = system: Vancomycin-intermediate Staphylococcus aureus Isolates; assay: MIC assay (NCCLS broth dilution), VISA isolates; settings: for MIC: read-out: Minimal Inhibitory Concentration
How it was run: as §1

[3] = system: Enterococcus faecalis (ATCC 29212); assay: MIC assay, quality control strain E. faecalis ATCC 29212; settings: ATCC29212, E. faecalis ATCC 29212, repeat runs 22FEB06-09MAR06, combinations at 2.5:1, read-out: Minimal Inhibitory Concentration, quality control
How it was run: as §1

[4] = system: Methicillin-Susceptible Staphylococcus aureus Isolates; assay: MIC assay (NCCLS broth dilution), MSSA clinical isolates; settings: for MIC: read-out: Minimal Inhibitory Concentration
How it was run: as §1

[5] = system: Unconfirmed Vancomycin-intermediate Staphylococcus aureus Isolates; assay: MIC assay (NCCLS broth dilution), unconfirmed VISA isolates; settings: for MIC: read-out: Minimal Inhibitory Concentration
How it was run: as §1

[6] = system: Vancomycin-intermediate Staphylococcus epidermidis Isolates; assay: MIC assay (NCCLS broth dilution), VISE isolates; settings: for MIC: read-out: Minimal Inhibitory Concentration
How it was run: as §1

[7] = system: Unconfirmed Vancomycin-intermediate Staphylococcus epidermidis Isolates; assay: MIC assay (NCCLS broth dilution), unconfirmed VISE isolates; settings: for MIC: read-out: Minimal Inhibitory Concentration
How it was run: as §1

[8] = Staphylococcus aureus, 52 MSSA isolates, combinations at 2.5:1, given as NB/partner

MIC ([1]; LRSA isolate 1651, 24FEB06): 16 µg/mL
MIC ([1]; LRSA isolate 1652, 24FEB06): 32 µg/mL
MIC ([1]; LRSA isolate 1725, 24FEB06): 32 µg/mL
MIC50 ([1]; 3 LRSA isolates, combinations at 2.5:1): 32 µg/mL
MIC Range ([2]; 2 VISA isolates, combinations at 2.5:1, given as NB/partner): 1 to 2 µg/mL
MIC ([2]; Staphylococcus aureus, VISA isolate 2012, 03MAR06): 1 µg/mL
MIC ([2]; Staphylococcus aureus, VISA isolate 2018, 03MAR06): 2 µg/mL
MIC50 ([2]; Staphylococcus aureus, 2 VISA isolates, combinations at 2.5:1, given as NB/partner): 1 µg/mL
MIC [3]: 2 µg/mL
MIC Range ([4]; 52 MSSA isolates, Mueller Hinton II Broth, combinations at 2.5:1, given as NB/partner): 1 to 4 µg/mL
MIC ([4]; Staphylococcus aureus, MSSA isolate 133, 03MAR06): 2 µg/mL
MIC ([4]; Staphylococcus aureus, MSSA isolate 134, 03MAR06): 2 µg/mL
MIC ([4]; Staphylococcus aureus, MSSA isolate 135, 03MAR06): 4 µg/mL
MIC ([4]; Staphylococcus aureus, MSSA isolate 753, 22FEB06): 2 µg/mL
MIC ([4]; Staphylococcus aureus, MSSA isolate 754, 22FEB06): 4 µg/mL
MIC ([4]; Staphylococcus aureus, MSSA isolate 754, 24FEB06): 4 µg/mL
MIC ([4]; Staphylococcus aureus, MSSA isolate 755, 22FEB06): 2 µg/mL
MIC ([4]; Staphylococcus aureus, MSSA isolate 756, 03MAR06): 2 µg/mL
MIC ([4]; Staphylococcus aureus, MSSA isolate 779, 22FEB06): 2 µg/mL
MIC ([4]; Staphylococcus aureus, MSSA isolate 780, 03MAR06): 4 µg/mL
MIC ([4]; Staphylococcus aureus, MSSA isolate 781, 03MAR06): 2 µg/mL
MIC ([4]; Staphylococcus aureus, MSSA isolate 782, 22FEB06): 2 µg/mL
MIC ([4]; Staphylococcus aureus, MSSA isolate 783, 22FEB06): 2 µg/mL
MIC ([4]; Staphylococcus aureus, MSSA isolate 784, 22FEB06): 2 µg/mL
MIC ([4]; Staphylococcus aureus, MSSA isolate 785, 22FEB06): 2 µg/mL
MIC ([4]; Staphylococcus aureus, MSSA isolate 786, 22FEB06): 4 µg/mL
MIC ([4]; Staphylococcus aureus, MSSA isolate 787, 22FEB06): 2 µg/mL
MIC ([4]; Staphylococcus aureus, MSSA isolate 788, 22FEB06): 2 µg/mL
MIC ([4]; Staphylococcus aureus, MSSA isolate 789, 24FEB06): 4 µg/mL
MIC ([4]; Staphylococcus aureus, MSSA isolate 790, 24FEB06): 4 µg/mL
MIC ([4]; Staphylococcus aureus, MSSA isolate 791, 24FEB06): 2 µg/mL
MIC ([4]; Staphylococcus aureus, MSSA isolate 792, 03MAR06): 2 µg/mL
MIC ([4]; Staphylococcus aureus, MSSA isolate 793, 24FEB06): 4 µg/mL
MIC ([4]; Staphylococcus aureus, MSSA isolate 794, 24FEB06): 4 µg/mL
MIC ([4]; Staphylococcus aureus, MSSA isolate 994, 22FEB06): 2 µg/mL
MIC ([4]; Staphylococcus aureus, MSSA isolate 995, 03MAR06): 2 µg/mL
MIC ([4]; Staphylococcus aureus, MSSA isolate 996, 22FEB06): 2 µg/mL
MIC ([4]; Staphylococcus aureus, MSSA isolate 997, 22FEB06): 2 µg/mL
MIC ([4]; Staphylococcus aureus, MSSA isolate 998, 03MAR06): 2 µg/mL
MIC ([4]; Staphylococcus aureus, MSSA isolate 999, 22FEB06): 2 µg/mL
MIC ([4]; Staphylococcus aureus, MSSA isolate 1000, 24FEB06): 2 µg/mL
MIC ([4]; Staphylococcus aureus, MSSA isolate 1001, 24FEB06): 2 µg/mL
MIC ([4]; Staphylococcus aureus, MSSA isolate 1002, 24FEB06): 2 µg/mL
MIC ([4]; Staphylococcus aureus, MSSA isolate 1003, 03MAR06): 2 µg/mL
MIC ([4]; Staphylococcus aureus, MSSA isolate 1005, 24FEB06): 2 µg/mL
MIC ([4]; Staphylococcus aureus, MSSA isolate 1006, 24FEB06): 2 µg/mL
MIC ([4]; Staphylococcus aureus, MSSA isolate 1007, 24FEB06): 4 µg/mL
MIC ([4]; Staphylococcus aureus, MSSA isolate 1008, 24FEB06): 2 µg/mL
MIC ([4]; Staphylococcus aureus, MSSA isolate 1009, 24FEB06): 4 µg/mL
MIC ([4]; Staphylococcus aureus, MSSA isolate 1131, 24FEB06): 2 µg/mL
MIC ([4]; Staphylococcus aureus, MSSA isolate 1132, 03MAR06): 2 µg/mL
MIC ([4]; Staphylococcus aureus, MSSA isolate 1133, 24FEB06): 2 µg/mL
MIC ([4]; Staphylococcus aureus, MSSA isolate 1134, 24FEB06): 2 µg/mL
MIC ([4]; Staphylococcus aureus, MSSA isolate 1654, 03MAR06): 2 µg/mL
MIC ([4]; Staphylococcus aureus, MSSA isolate 1656, 03MAR06): 2 µg/mL
MIC ([4]; Staphylococcus aureus, MSSA isolate 1662, 03MAR06): 2 µg/mL
MIC ([4]; Staphylococcus aureus, MSSA isolate 1663, 03MAR06): 4 µg/mL
MIC ([4]; Staphylococcus aureus, MSSA isolate 1666, 03MAR06): 4 µg/mL
MIC ([4]; Staphylococcus aureus, MSSA isolate 1667, 03MAR06): 4 µg/mL
MIC ([4]; Staphylococcus aureus, MSSA isolate 1668, 03MAR06): 4 µg/mL
MIC ([4]; Staphylococcus aureus, MSSA isolate 1671, 03MAR06): 2 µg/mL
MIC ([4]; Staphylococcus aureus, MSSA isolate 1728, 03MAR06): 1 µg/mL
MIC ([4]; Staphylococcus aureus, MSSA isolate 1728, retest 09MAR06): 1 µg/mL
MIC50 [4, 8]: 2 µg/mL
MIC90 [4, 8]: 4 µg/mL
MIC Range ([5]; 6 unconfirmed VISA isolates (vancomycin MIC 4 ug/ml), combinations at 2.5:1): 1 to 4 µg/mL
MIC ([5]; Staphylococcus aureus, Unconfirmed VISA isolate 2013, 03MAR06): 2 µg/mL
MIC ([5]; Staphylococcus aureus, Unconfirmed VISA isolate 2014, 03MAR06): 2 µg/mL
MIC ([5]; Staphylococcus aureus, Unconfirmed VISA isolate 2015, 03MAR06): 1 µg/mL
MIC ([5]; Staphylococcus aureus, Unconfirmed VISA isolate 2016, 03MAR06): 4 µg/mL
MIC ([5]; Staphylococcus aureus, Unconfirmed VISA isolate 2017, 03MAR06): 2 µg/mL
MIC ([5]; Staphylococcus aureus, Unconfirmed VISA isolate 2019, 03MAR06): 1 µg/mL
MIC50 ([5]; Staphylococcus aureus, 6 unconfirmed VISA isolates (vancomycin MIC 4 ug/ml), combinations at 2.5:1): 2 µg/mL
MIC Range ([6]; 4 VISE isolates, combinations at 2.5:1): 1 to 2 µg/mL
MIC ([6]; Staphylococcus epidermidis, VISE isolate 2020, 09MAR06): 2 µg/mL
MIC ([6]; Staphylococcus epidermidis, VISE isolate 2021, 09MAR06): 1 µg/mL
MIC ([6]; Staphylococcus epidermidis, VISE isolate 2022, 03MAR06): 2 µg/mL
MIC ([6]; Staphylococcus epidermidis, VISE isolate 2023, 03MAR06): 2 µg/mL
MIC50 ([6]; Staphylococcus epidermidis, 4 VISE isolates, combinations at 2.5:1): 2 µg/mL
MIC Range ([7]; 3 unconfirmed VISE isolates, combinations at 2.5:1): 1 to 2 µg/mL
MIC ([7]; Staphylococcus epidermidis, Unconfirmed VISE isolate 2024, 09MAR06): 1 µg/mL
MIC ([7]; Staphylococcus epidermidis, Unconfirmed VISE isolate 2025, 09MAR06): 1 µg/mL
MIC ([7]; Staphylococcus epidermidis, Unconfirmed VISE isolate 2026, 03MAR06): 2 µg/mL
MIC50 ([7]; Staphylococcus epidermidis, 3 unconfirmed VISE isolates, combinations at 2.5:1): 1 µg/mL
Compound: CC(=O)NC[C@H]1CN(c2ccc(N3CCOCC3)c(F)c2)C(=O)O1 [LZD, linezolid]
